The text below walks through data of PMC5218480 (PLoS ONE, 2017).

This assay concerns MV-4-11 cells. In words: Gene expression microarray analysis (Affymetrix PrimeView) and GSEA. The following applies: ProbeSet 11758440_s_at; LIST B. Details: RFU PODN (11730768_x_at) / Fold change /veh PODN (11730768_x_at) / RFU LINC00158 (11744669_a_at) / Fold change /veh LINC00158 (11744669_a_at) / RFU DUSP10 (11751237_a_at) / Fold change /veh DUSP10 (11751237_a_at) / RFU ID3 (11757404_x_at) / Fold change /veh ID3 (11757404_x_at) / RFU PLEKHG5 (11737974_s_at) / Fold change /veh PLEKHG5 (11737974_s_at) / RFU LRRC4B (11730491_at) / Fold change /veh LRRC4B (11730491_at) / RFU GIMAP4 (11747438_a_at) / Fold change /veh GIMAP4 (11747438_a_at) / RFU KRT8 (11758183_x_at) / Fold change /veh KRT8 (11758183_x_at) / RFU CNN1 (11734310_a_at) / Fold change /veh CNN1 (11734310_a_at) / RFU VPS37D (11726825_at) / Fold change /veh VPS37D (11726825_at) / RFU C10orf10 (11716522_x_at) / Fold change /veh C10orf10 (11716522_x_at) / RFU KIR2DL2 /// KIR2DL4 /// KIR2DL5A /// KIR2DL5B /// KIR2DS1 /// KIR2DS2 /// KIR2DS3 /// KIR2DS4 /// KIR3DL3 /// KIR3DL3 /// KIR3DS1 (11738374_at) / Fold change /veh KIR2DL2 /// KIR2DL4 /// KIR2DL5A /// KIR2DL5B /// KIR2DS1 /// KIR2DS2 /// KIR2DS3 /// KIR2DS4 /// KIR3DL3 /// KIR3DL3 /// KIR3DS1 (11738374_at) / RFU C1QL1 (11718748_at) / Fold change /veh C1QL1 (11718748_at) / RFU TMPRSS4 (11747572_a_at) / Fold change /veh TMPRSS4 (11747572_a_at) / RFU HAMP (11756126_x_at) / Fold change /veh HAMP (11756126_x_at) / RFU RNFT2 (11725882_a_at) / Fold change /veh RNFT2 (11725882_a_at) / RFU NR4A2 (11747474_a_at) / Fold change /veh NR4A2 (11747474_a_at) / RFU ABCC12 (11746883_a_at) / Fold change /veh ABCC12 (11746883_a_at) / RFU TMEM136 (11760407_x_at) / Fold change /veh TMEM136 (11760407_x_at) / RFU CLDN22 /// WWC2 (11732394_at) / Fold change /veh CLDN22 /// WWC2 (11732394_at) / RFU HLA-DPB1 (11760878_x_at) / Fold change /veh HLA-DPB1 (11760878_x_at) / RFU SPINT1 (11716480_a_at) / Fold change /veh SPINT1 (11716480_a_at) / RFU GAP43 (11754022_s_at) / Fold change /veh GAP43 (11754022_s_at) / RFU A4GNT (11735810_at) / Fold change /veh A4GNT (11735810_at) / RFU PRB3 (11715151_x_at) / Fold change /veh PRB3 (11715151_x_at) / RFU TUBB4B (11761932_at) / Fold change /veh TUBB4B (11761932_at) / RFU CAPN14 (11732068_a_at) / Fold change /veh CAPN14 (11732068_a_at) / RFU TMCC2 (11721928_a_at) / Fold change /veh TMCC2 (11721928_a_at) / RFU IRGQ (11745062_a_at) / Fold change /veh IRGQ (11745062_a_at) / RFU FAM174B (11720279_a_at) / Fold change /veh FAM174B (11720279_a_at) / RFU TMPRSS4 (11748680_a_at) / Fold change /veh TMPRSS4 (11748680_a_at) / RFU FAM212B (11763350_a_at) / Fold change /veh FAM212B (11763350_a_at) / RFU PLEKHG5 (11743358_a_at) / Fold change /veh PLEKHG5 (11743358_a_at) / RFU ZSCAN30 (11745921_a_at) / Fold change /veh ZSCAN30 (11745921_a_at) / RFU CMKLR1 (11741424_a_at) / Fold change /veh CMKLR1 (11741424_a_at) / RFU LOC101060620 /// MAPK8IP1 (11723275_at) / Fold change /veh LOC101060620 /// MAPK8IP1 (11723275_at) / RFU SPTSSB (11747773_x_at) / Fold change /veh SPTSSB (11747773_x_at) / RFU PRSS12 (11739890_at) / Fold change /veh PRSS12 (11739890_at) / RFU BIN1 (11741810_x_at) / Fold change /veh BIN1 (11741810_x_at) / RFU WNT11 (11732464_a_at) / Fold change /veh WNT11 (11732464_a_at) / RFU C10orf10 (11716521_a_at) / Fold change /veh C10orf10 (11716521_a_at) / RFU C5orf56 (11738089_at) / Fold change /veh C5orf56 (11738089_at) / RFU CYB561 (11721691_x_at) / Fold change /veh CYB561 (11721691_x_at) / RFU ANKRD19P (11752326_a_at) / Fold change /veh ANKRD19P (11752326_a_at) / RFU OR2T12 /// OR2T33 /// OR2T8 (11738714_s_at) / Fold change /veh OR2T12 /// OR2T33 /// OR2T8 (11738714_s_at) / RFU VCAN (11748164_a_at) / Fold change /veh VCAN (11748164_a_at) / RFU JSRP1 (11732532_at) / Fold change /veh JSRP1 (11732532_at) / RFU KRTAP10-11 (11738290_x_at) / Fold change /veh KRTAP10-11 (11738290_x_at) / RFU MYO3A (11730013_a_at) / Fold change /veh MYO3A (11730013_a_at) / RFU EBF3 (11725865_a_at) / Fold change /veh EBF3 (11725865_a_at) / RFU CAMK2N1 (11719241_x_at) / Fold change /veh CAMK2N1 (11719241_x_at) / RFU C5orf56 (11738088_a_at) / Fold change /veh C5orf56 (11738088_a_at) / RFU OLFML3 (11715873_a_at) / Fold change /veh OLFML3 (11715873_a_at) / RFU LOC100653217 /// NTM (11731650_a_at) / Fold change /veh LOC100653217 /// NTM (11731650_a_at) / RFU MAPK11 (11762145_a_at) / Fold change /veh MAPK11 (11762145_a_at) / RFU FIZ1 (11724087_x_at) / Fold change /veh FIZ1 (11724087_x_at) / RFU OASL (11726364_x_at) / Fold change /veh OASL (11726364_x_at) / RFU SOX15 (11748057_x_at) / Fold change /veh SOX15 (11748057_x_at) / RFU CD79A (11719716_a_at) / Fold change /veh CD79A (11719716_a_at) / RFU HIST1H1D (11736915_at) / Fold change /veh HIST1H1D (11736915_at) / RFU CASKIN2 (11723855_a_at) / Fold change /veh CASKIN2 (11723855_a_at) / RFU LOC730098 (11760151_x_at) / Fold change /veh LOC730098 (11760151_x_at) / RFU OR4N2 (11742367_at) / Fold change /veh OR4N2 (11742367_at) / RFU PRRT2 (11749266_a_at) / Fold change /veh PRRT2 (11749266_a_at) / RFU SNX32 (11753110_a_at) / Fold change /veh SNX32 (11753110_a_at) / RFU CDHR5 (11726645_a_at) / Fold change /veh CDHR5 (11726645_a_at) / RFU RCAN1 (11760418_a_at) / Fold change /veh RCAN1 (11760418_a_at) / RFU FAM167A (11723789_a_at) / Fold change /veh FAM167A (11723789_a_at) / RFU FAM26E (11764081_at) / Fold change /veh FAM26E (11764081_at) / RFU ISYNA1 (11749810_s_at) / Fold change /veh ISYNA1 (11749810_s_at) / RFU ACY1 (11761880_at) / Fold change /veh ACY1 (11761880_at) / RFU 11764098_at / Fold change /veh 11764098_at / RFU SAMD14 (11745864_x_at) / Fold change /veh SAMD14 (11745864_x_at) / RFU NPB (11741838_a_at) / Fold change /veh NPB (11741838_a_at) / RFU TMPRSS6 (11731388_a_at) / Fold change /veh TMPRSS6 (11731388_a_at) / RFU KRTAP10-2 (11738614_at) / Fold change /veh KRTAP10-2 (11738614_at) / RFU ARHGAP8 /// PRR5-ARHGAP8 (11727945_x_at) / Fold change /veh ARHGAP8 /// PRR5-ARHGAP8 (11727945_x_at) / RFU KRTAP5-7 /// NADSYN1 (11734609_at) / Fold change /veh KRTAP5-7 /// NADSYN1 (11734609_at) / RFU RASL12 (11751679_a_at) / Fold change /veh RASL12 (11751679_a_at) / RFU CDKN2B (11736163_a_at) / Fold change /veh CDKN2B (11736163_a_at) / RFU PRF1 (11729649_at) / Fold change /veh PRF1 (11729649_at) / RFU, ZNF638 /// ZNF638-IT1 / Fold change vs veh, ZNF638 /// ZNF638-IT1 / RFU, PANK3 / Fold change vs veh, PANK3 / RFU, SH3YL1 / Fold change vs veh, SH3YL1 / RFU, ZEB2 / Fold change vs veh, ZEB2 / RFU, NRIP1 / Fold change vs veh, NRIP1 / RFU, PTTG1IP / Fold change vs veh, PTTG1IP / RFU, CAPN2 / Fold change vs veh, CAPN2 / RFU, MED14 / Fold change vs veh, MED14 / RFU, SNORA58 / Fold change vs veh, SNORA58 / RFU, C1orf63 / Fold change vs veh, C1orf63 / RFU, LRRFIP1 / Fold change vs veh, LRRFIP1 / RFU, NDUFAF7 / Fold change vs veh, NDUFAF7 / RFU, SLC12A2 / Fold change vs veh, SLC12A2 / RFU, IBTK / Fold change vs veh, IBTK / RFU, ESF1 / Fold change vs veh, ESF1 / Fold change vs veh, TMEM50B / RFU, TAOK1 / Fold change vs veh, TAOK1 / RFU, ACBD3 / Fold change vs veh, ACBD3 / RFU, TMA16 / Fold change vs veh, TMA16 / RFU, RWDD3 / Fold change vs veh, RWDD3 / RFU, BCAT1 / Fold change vs veh, BCAT1 / RFU, EDEM3 / Fold change vs veh, EDEM3 / RFU, TMEM33 / Fold change vs veh, TMEM33 / RFU, WDR75 / Fold change vs veh, WDR75 / RFU, AHCTF1 / Fold change vs veh, AHCTF1 / RFU, TFRC / Fold change vs veh, TFRC / RFU, ZDHHC17 / Fold change vs veh, ZDHHC17 / RFU, NOM1 / Fold change vs veh, NOM1 / RFU, ARL8B / Fold change vs veh, ARL8B / RFU, ZBTB11 / Fold change vs veh, ZBTB11 / RFU, TAMM41 / Fold change vs veh, TAMM41 / RFU, KIAA1704 /// LOC100996395 / Fold change vs veh, KIAA1704 /// LOC100996395 / RFU, ING1 / Fold change vs veh, ING1 / RFU, TRMT61B / Fold change vs veh, TRMT61B / RFU, FUBP3 / Fold change vs veh, FUBP3 / RFU, TP53 / Fold change vs veh, TP53 / RFU, TNKS2 / Fold change vs veh, TNKS2 / RFU, ZFP14 / Fold change vs veh, ZFP14 / RFU, ACTR2 / Fold change vs veh, ACTR2 / RFU, PPP3R1 / Fold change vs veh, PPP3R1 / RFU, PIK3R1 / Fold change vs veh, PIK3R1 / RFU, HNRNPA1 / Fold change vs veh, HNRNPA1 / RFU, RNF170 / Fold change vs veh, RNF170 / RFU, ZNF28 / Fold change vs veh, ZNF28 / RFU, RNGTT / Fold change vs veh, RNGTT / RFU, OGT / Fold change vs veh, OGT / RFU, BRD1 / Fold change vs veh, BRD1 / RFU, MARS / Fold change vs veh, MARS / RFU, ZNF655 / Fold change vs veh, ZNF655 / RFU, FAHD1 / Fold change vs veh, FAHD1 / RFU, BDP1 / Fold change vs veh, BDP1 / RFU, LRRCC1 / Fold change vs veh, LRRCC1 / RFU, ARID1A / Fold change vs veh, ARID1A / RFU, ZNF146 / Fold change vs veh, ZNF146 / RFU, ZNF330 / Fold change vs veh, ZNF330 / RFU, GPN3 / Fold change vs veh, GPN3 / RFU, C9orf123 / Fold change vs veh, C9orf123 / RFU, N4BP2L2 / Fold change vs veh, N4BP2L2 / RFU, ARFIP1 / Fold change vs veh, ARFIP1 / RFU, FAM179B / Fold change vs veh, FAM179B / RFU, BCL10 / Fold change vs veh, BCL10 / RFU, UHRF1BP1L / Fold change vs veh, UHRF1BP1L / RFU, BET1 / Fold change vs veh, BET1 / RFU, CNOT2 / Fold change vs veh, CNOT2 / RFU, ZNF268 / Fold change vs veh, ZNF268 / Fold change vs veh, ZNF507 / RFU, DGCR2 / Fold change vs veh, DGCR2 / RFU, WDSUB1 / Fold change vs veh, WDSUB1 / Fold change vs veh, HSP90B1 /// MIR3652 / RFU, ADSS / Fold change vs veh, ADSS / RFU, GK / Fold change vs veh, GK / RFU, ZNF148 / Fold change vs veh, ZNF148 / RFU, TAF9 / Fold change vs veh, TAF9 / RFU, SLC1A5 / Fold change vs veh, SLC1A5 / RFU, SLMO2 / Fold change vs veh, SLMO2 / RFU, ABCC4 / Fold change vs veh, ABCC4 / RFU, LOC101060439 /// RAP1B / Fold change vs veh, LOC101060439 /// RAP1B / RFU, RFX7 / Fold change vs veh, RFX7 / RFU, GTPBP10 / Fold change vs veh, GTPBP10 / RFU, CNEP1R1 / Fold change vs veh, CNEP1R1 / RFU, BIVM-ERCC5 /// ERCC5 / Fold change vs veh, BIVM-ERCC5 /// ERCC5 / RFU, ILF3 / Fold change vs veh, ILF3 / RFU 11762660_at / Fold change /veh 11762660_at / RFU VCAN (11757783_s_at) / Fold change /veh VCAN (11757783_s_at) / RFU DDX43 (11728927_at) / Fold change /veh DDX43 (11728927_at) / RFU KRT8 (11758188_x_at) / Fold change /veh KRT8 (11758188_x_at) / RFU NKD1 (11759106_at) / Fold change /veh NKD1 (11759106_at) / RFU SRD5A1 (11742802_a_at) / Fold change /veh SRD5A1 (11742802_a_at) / RFU TPSAB1 /// TPSB2 (11721975_s_at) / Fold change /veh TPSAB1 /// TPSB2 (11721975_s_at) / RFU GSTM3 (11746129_a_at) / Fold change /veh GSTM3 (11746129_a_at) / RFU IL23R (11737362_x_at) / Fold change /veh IL23R (11737362_x_at) / RFU TMEM51 (11727254_a_at) / Fold change /veh TMEM51 (11727254_a_at) / RFU PIWIL2 (11732686_x_at) / Fold change /veh PIWIL2 (11732686_x_at) / RFU ORM1 (11744905_x_at) / Fold change /veh ORM1 (11744905_x_at) / RFU CCDC152 (11743942_at) / Fold change /veh CCDC152 (11743942_at) / RFU ECM1 (11717891_a_at) / Fold change /veh ECM1 (11717891_a_at) / RFU IL23R (11748794_a_at) / Fold change /veh IL23R (11748794_a_at) / RFU TNFAIP8L3 (11732012_x_at) / Fold change /veh TNFAIP8L3 (11732012_x_at) / RFU MBOAT4 (11741988_at) / Fold change /veh MBOAT4 (11741988_at) / RFU 11764193_at / Fold change /veh 11764193_at / RFU TMEM53 (11763286_at) / Fold change /veh TMEM53 (11763286_at) / RFU MAGEB2 (11727129_at) / Fold change /veh MAGEB2 (11727129_at) / RFU TMEM200A (11744735_a_at) / Fold change /veh TMEM200A (11744735_a_at) / RFU CCDC152 (11751479_a_at) / Fold change /veh CCDC152 (11751479_a_at) / RFU FAM211A (11726209_a_at) / Fold change /veh FAM211A (11726209_a_at) / RFU RGS16 (11746705_a_at) / Fold change /veh RGS16 (11746705_a_at) / RFU VCAN (11755009_s_at) / Fold change /veh VCAN (11755009_s_at) / RFU RHOB (11743442_s_at) / Fold change /veh RHOB (11743442_s_at) / RFU RGS16 (11720943_a_at) / Fold change /veh RGS16 (11720943_a_at) / RFU RGS16 (11720944_at) / Fold change /veh RGS16 (11720944_at) / RFU, VPS4B / Fold change vs veh, VPS4B / RFU, CREB1 / Fold change vs veh, CREB1 / RFU, DNAJC13 / Fold change vs veh, DNAJC13 / RFU, GNAQ / Fold change vs veh, GNAQ / RFU, CDK5R1 / Fold change vs veh, CDK5R1 / RFU, ZRANB3 / Fold change vs veh, ZRANB3 / RFU, CUL4A / Fold change vs veh, CUL4A / RFU, CCNY / Fold change vs veh, CCNY / RFU, UFL1 / Fold change vs veh, UFL1 / RFU, COG3 / Fold change vs veh, COG3 / RFU, DIAPH2 / Fold change vs veh, DIAPH2 / RFU, SKA2 / Fold change vs veh, SKA2 / RFU, AFF3 / Fold change vs veh, AFF3 / RFU, LMF1 / Fold change vs veh, LMF1 / RFU, IPO11 / Fold change vs veh, IPO11 / RFU, DFFB / Fold change vs veh, DFFB / RFU, FOXP1 / Fold change vs veh, FOXP1 / RFU, CARD8 / Fold change vs veh, CARD8 / RFU, STRN3 / Fold change vs veh, STRN3 / RFU, ADK / Fold change vs veh, ADK / RFU, RASSF2 / Fold change vs veh, RASSF2 / RFU, WIPF1 / Fold change vs veh, WIPF1 / RFU, LARP1B / Fold change vs veh, LARP1B / RFU, RASA1 / Fold change vs veh, RASA1 / RFU, RB1 / Fold change vs veh, RB1 / RFU, PPFIA1 / Fold change vs veh, PPFIA1 / RFU, MAT2A / Fold change vs veh, MAT2A / RFU, CCT5 / Fold change vs veh, CCT5 / RFU, WDR92 / Fold change vs veh, WDR92 / RFU, CUX1 / Fold change vs veh, CUX1 / RFU, TTC7A / Fold change vs veh, TTC7A / RFU, TMEM135 / Fold change vs veh, TMEM135 / RFU, DEPTOR / Fold change vs veh, DEPTOR / RFU, CPM / Fold change vs veh, CPM / RFU, DNAJB6 / Fold change vs veh, DNAJB6 / RFU, CACNA2D3 / Fold change vs veh, CACNA2D3 / RFU, DTX4 / Fold change vs veh, DTX4 / RFU, TFCP2 / Fold change vs veh, TFCP2 / RFU, GMCL1 /// GMCL1P1 / Fold change vs veh, GMCL1 /// GMCL1P1 / RFU, AEBP2 / Fold change vs veh, AEBP2 / RFU, SNHG1 /// SNORD22 /// SNORD25 /// SNORD26 /// SNORD27 /// SNORD28 /// SNORD29 /// SNORD31 / Fold change vs veh, SNHG1 /// SNORD22 /// SNORD25 /// SNORD26 /// SNORD27 /// SNORD28 /// SNORD29 /// SNORD31 / Fold change (Aza/veh), C12orf56 (ProbeSet 11735607_a_at) / Fold change (ACY-1035/veh), C12orf56 (ProbeSet 11735607_a_at) / Fold change (Aza/veh), FGFR1OP (ProbeSet 11751329_s_at) / Fold change (ACY-1035/veh), FGFR1OP (ProbeSet 11751329_s_at) / Fold change (Aza/veh), VPS36 (ProbeSet 11739960_a_at) / Fold change (ACY-1035/veh), VPS36 (ProbeSet 11739960_a_at) / RFU SYPL1 (11715823_x_at) / Fold change /veh SYPL1 (11715823_x_at) / RFU IGFBP7 (11715501_s_at) / Fold change /veh IGFBP7 (11715501_s_at) / RFU REEP3 (11722064_at) / Fold change /veh REEP3 (11722064_at) / RFU IGLL1 (11728026_x_at) / Fold change /veh IGLL1 (11728026_x_at): dose or concentration left out as unconfirmed. The format is cell-based, human.

Consider `Nc1ccc(-c2cccs2)cc1NC(=O)c1ccc2c(c1)cc(C1CC1)n2CCN1CCOCC1` [ACY-1035], for which the “Fold change vs veh, RFX7” value was 0.90.
